Experimental findings from ChEMBL document CHEMBL1145500, “In vitro bactericidal activity of the antiprotozoal drug miltefosine against Streptococcus pneumoniae and other pathogenic streptococci” (2007) are described below.

As usually defined, the MIC is the least concentration at which growth counts as inhibited.

Structures are written as SMILES. Values after ≈ are worked out from the molar mass of the structure shown. Active and inactive are the calls of the source. The calls are words filed in the database; no cut-off is given here. Where only a bound is given, the exact number is not on record here.

Assay [1] deals with Streptococcus sp. The assay can be described thus: Antimicrobial activity against Streptococcus sp. 782/96. It is filed as functional.
The subject of assay [2] is Streptococcus pneumoniae. The assay can be described thus: Antimicrobial activity against Streptococcus pneumoniae spain 23F-1. Format: functional.
The test system of assay [3] is Streptococcus sp. The assay can be described thus: Antimicrobial activity against Streptococcus sp.11923/96. It is filed as functional.
The subject of assay [4] is Streptococcus pseudopneumoniae. Kind of assay: Bactericidal effect on Streptococcus pseudopneumoniae at 10 uM. It is filed as functional.
Assay [5] has as its system Streptococcus pneumoniae. Kind of assay: Antimicrobial activity against Streptococcus pneumoniae R6. Format: functional.
Another assay has as its system Streptococcus agalactiae. The assay can be described thus: Antimicrobial activity against Streptococcus agalactiae CECT 183. It is filed as functional.
Another assay has as its system Streptococcus oralis. The assay can be described thus: Antimicrobial activity against Streptococcus oralis NCTC 11427.
The test system of assay [6] is Streptococcus sp. Kind of assay: Bactericidal effect on Streptococcus sp. 782/96 at 10 uM. It is filed as functional, organism-based.
The test system of another assay is Enterococcus faecalis. Kind of assay: Antimicrobial activity against Enterococcus faecalis. Format: functional.
The next assay relates to Streptococcus mitis. Kind of assay: Antimicrobial activity against Streptococcus mitis NCTC 12161. Format: functional.
The subject of assay [7] is Streptococcus pneumoniae. The assay can be described thus: Antimicrobial activity against Streptococcus pneumoniae ATCC 6303. It is filed as functional.
A further assay concerns Streptococcus mutans. Kind of assay: Antimicrobial activity against Streptococcus mutans CECT 479. It is filed as functional.
In assay [8] the test system is Streptococcus pneumoniae. The assay can be described thus: Induction of autolysin LytA in Streptococcus pneumoniae M32 assessed as log reduction in bacterial count at 25 uM after 15 mins. Format: functional.
Assay [9] deals with Streptococcus sp. Kind of assay: Bactericidal effect on Streptococcus sp.11923/96 at 10 uM. It is filed as functional, organism-based.
The subject of assay [10] is Streptococcus pneumoniae. The assay can be described thus: Induction of autolysin LytA Streptococcus pneumoniae M32 assessed as log reduction in bacterial count at 25 uM after 3 hrs. Format: functional.
The test system of assay [11] is Streptococcus pneumoniae. Kind of assay: Lytic effect on Streptococcus pneumoniae M32 in presence of 10 ug/ml LytA amidase. Format: functional, organism-based.
Assay [12] relates to Streptococcus pneumoniae. The assay can be described thus: Antimicrobial activity against Streptococcus pneumoniae 8249. It is filed as functional.
Assay [13] concerns Streptococcus pneumoniae. Kind of assay: Antimicrobial activity against Streptococcus pneumoniae M32. Format: functional.
Another assay deals with Streptococcus pyogenes. Kind of assay: Antimicrobial activity against Streptococcus pyogens CECT 985.

For the molecule `CN(C)[C@@H]1C(O)=C(C(N)=O)C(=O)[C@@]2(O)C(O)=C3C(=O)c4c(O)cccc4[C@@](C)(O)[C@H]3C[C@@H]12` [TETRACYCLINE], the minimum inhibitory concentration (MIC) is 128 µg/mL (≈ 288 µM) with Streptococcus sp. [1], 8 µg/mL in the assay on Streptococcus pneumoniae [2] and 0.5 µg/mL (≈ 1.13 µM) in the assay with Streptococcus sp. [3].
Consider `CC[C@H]1OC(=O)[C@H](C)[C@@H](O[C@H]2C[C@@](C)(OC)[C@@H](O)[C@H](C)O2)[C@H](C)[C@@H](O[C@@H]2O[C@H](C)C[C@H](N(C)C)[C@H]2O)[C@](C)(O)C[C@@H](C)C(=O)[C@H](C)[C@@H](O)[C@]1(C)O` [ERYTHROMYCIN], for which the minimal inhibitory concentration (MIC) with Streptococcus sp. [1] is greater than 128 µg/mL; with Streptococcus sp. [3] it was 4 µg/mL (≈ 5.45 µM).
`CCCCCCCCCCCCCCCCOP(=O)([O-])OCC[N+](C)(C)C` [MILTEFOSINE]: the outcome (in [4]; in the assay with Streptococcus sp. [6]; in the assay with Streptococcus sp. [9]; in the assay on Streptococcus pneumoniae [11]) was Active. The MIC is 5 µM (≈ 2.04 µg/mL) against Streptococcus pneumoniae [5]; 20 µM (≈ 8.15 µg/mL) with Streptococcus agalactiae; 10 µM (≈ 4.08 µg/mL) in the assay with Streptococcus oralis; 20 µM (≈ 8.15 µg/mL) with Enterococcus faecalis; 10 µM (≈ 4.08 µg/mL) against Streptococcus mitis; 6.25 µM with Streptococcus pneumoniae [2]. The minimum inhibitory concentration (MIC) with Streptococcus pneumoniae [7] was determined as 6.25 µM (≈ 2.55 µg/mL); with Streptococcus mutans, 20 µM (≈ 8.15 µg/mL); in the assay with Streptococcus pneumoniae [12], 6.25 µM (≈ 2.55 µg/mL); against Streptococcus pneumoniae [13] it was 5 µM (≈ 2.04 µg/mL); against Streptococcus pyogenes it was 10 µM (≈ 4.08 µg/mL). Also, the Activity is given as 2 in the assay on Streptococcus pneumoniae [8] and 4 in the assay with Streptococcus pneumoniae [10].
For `O=C(N[C@H](CO)[C@H](O)c1ccc([N+](=O)[O-])cc1)C(Cl)Cl` [CHLORAMPHENICOL], in the assay with Streptococcus pneumoniae [2], the MIC is greater than 8 µg/mL.
